Measurements published in patent US8143421B2, “Broadspectrum substituted benzimidazole sulfonamide HIV protease inhibitors” (priority 2002, dated 2012).

Tests used:
HIV-1 strain LAI = assay: Cellular anti-HIV assay, MT4 cells, MTT readout, wild type HIV-1 strain LAI; type: cell-based; settings: for pIC50 (LAI): MT4 cells, five days, HIV-1 strain LAI; for WT (pIC50 against wild type HIV-LAI strain): Table 4
Protocol: The compounds of the present invention were examined for anti-viral activity in a cellular assay. […] The cellular assay was performed according to the following procedure.

mutant A = type: cell-based; settings: FR=IC50(mutant strain)/IC50(HIV-1 strain LAI)
Protocol: (§1) HIV- or mock-infected MT4 cells were incubated for five days in the presence of various concentrations of the inhibitor. […] Cell viability is measured by measuring the concentration of MTT, a yellow, water soluble tetrazolium dye that is converted to a purple, water insoluble formazan in the mitochondria of living cells only. Upon solubilization of the resulting formazan crystals with isopropanol, the absorbance of the solution is monitored at 540 nm. The values correlate directly to the number of living cells remaining in the culture at the completion of the five day incubation. The inhibitory activity of the compound was monitored on the virus-infected cells and was expressed as IC50 and IC90. These values represent the amount of the compound required to protect 50% and 90%, respectively, of the cells from the cytopathogenic effect of the virus. […] The selectivity index (SI) (ratio CC50/IC50) is an indication of the selectivity of the anti-HIV activity of the inhibitor. Wherever results are reported as e.g. pIC50 or pCC50 values, the result is expressed as the negative logarithm of the result expressed as IC50 or CC50 respectively.
(§2) Because of the increasing emergence of drug resistant HIV strains, the present compounds were tested for their potency against clinically isolated HIV strains harboring several mutations. […] The viral strains R13025, R13027, R13028, R13029, R13034, R13080, T13127 and R13363 contained mutations as indicated below in Table 3.
(§3) As a measure of the broad spectrum activity of the present compounds, the fold resistance (FR), defined as FR=IC50(mutant strain)/IC50(HIV-1 strain LAI), was determined.

mutant E = type: cell-based; settings: FR=IC50(mutant strain)/IC50(HIV-1 strain LAI)
Protocol: as §1, §2, §3

mutant H = assay: Antiviral spectrum, fold resistance towards mutant H; type: cell-based; settings: FR=IC50(mutant strain)/IC50(HIV-1 strain LAI)
Protocol: Because of the increasing emergence of drug resistant HIV strains, the present compounds were tested for their potency against clinically isolated HIV strains harboring several mutations. These mutations are associated with resistance to protease inhibitors and result in viruses that show various degrees of phenotypic cross-resistance to the currently commercially available drugs such as for instance saquinavir, ritonavir, nelfinavir, indinavir and amprenavir. The viral strains R13025, R13027, R13028, R13029, R13034, R13080, T13127 and R13363 contained mutations as indicated below in Table 3.

mock-infected MT4 cells = assay: in vitro
Protocol: as §1, §3

[1] = pCC50 value as determined with mock transfected cells

## CC(C)CN(C[C@@H](O)[C@H](Cc1ccccc1)NC(=O)OCc1cncs1)S(=O)(=O)c1ccc2ncn(CC(C)C)c2c1 [Compound 32]
HIV-1 strain LAI; Table 1
  pIC50 (LAI): 7.4
HIV-1 strain LAI
  WT (pIC50 against wild type HIV-LAI strain): 7.4
Mutant A
  FR value towards mutant A: 18
Mutant E
  FR towards mutant E: 13
Mutant H
  FR towards mutant H: 41
mock-infected MT4 cells
  Tox (pCC50): 4.2

## CC(C)CN(C[C@@H](O)[C@H](Cc1ccccc1)NC(=O)OCc1cncs1)S(=O)(=O)c1ccc2ncn(C)c2c1 [Compound 33]
HIV-1 strain LAI; Table 1
  pIC50 (LAI): 7.0
HIV-1 strain LAI
  WT (pIC50 against wild type HIV-LAI strain): 7.7
Mutant A
  FR value towards mutant A: 60
Mutant E
  FR towards mutant E: 19
Mutant H
  FR towards mutant H: 234
mock-infected MT4 cells
  Tox (pCC50): <4

## CC(C)CN(C[C@@H](O)[C@H](Cc1ccccc1)NC(=O)OC(C)(C)C)S(=O)(=O)c1ccc2ncn(CCc3ccccc3)c2c1 [Compound 43]
HIV-1 strain LAI; Table 1
  pIC50 (LAI): 6.4
HIV-1 strain LAI
  WT (pIC50 against wild type HIV-LAI strain): 6.4
Mutant A
  FR value towards mutant A: 22
Mutant E
  FR towards mutant E: 12.6
Mutant H
  FR towards mutant H: 28
mock-infected MT4 cells; [1]
  Tox (pCC50): 4.99

## Cc1cccc(C)c1OCC(=O)N[C@@H](Cc1ccccc1)[C@H](O)CN(CC(C)C)S(=O)(=O)c1ccc2nc[nH]c2c1 [Compound 29]
HIV-1 strain LAI; Table 1
  pIC50 (LAI): 7.1
HIV-1 strain LAI
  WT (pIC50 against wild type HIV-LAI strain): 7.1
Mutant A
  FR value towards mutant A: 14
Mutant E
  FR towards mutant E: 13
Mutant H
  FR towards mutant H: 78
mock-infected MT4 cells
  Tox (pCC50): 4.21

## COC(=O)Nc1nc2ccc(S(=O)(=O)N(CC(C)C)C[C@@H](O)[C@H](Cc3ccccc3)NC(=O)COc3c(C)cc(CN)cc3C)cc2[nH]1 [Compound 26]
HIV-1 strain LAI; Table 1
  pIC50 (LAI): 7.0
HIV-1 strain LAI
  WT (pIC50 against wild type HIV-LAI strain): 7.0
Mutant A
  FR value towards mutant A: 6.3
Mutant E
  FR towards mutant E: 6.8
Mutant H
  FR towards mutant H: 47
mock-infected MT4 cells; [1]
  Tox (pCC50): 4.86

## CC(C)CN(CC(O)C(Cc1ccccc1)NC(=O)OC1COC2OCCC12)S(=O)(=O)c1ccc2nc(N)n(C)c2c1 (centres unmarked) [Compound 41]
HIV-1 strain LAI; Table 1
  pIC50 (LAI): 6.6
HIV-1 strain LAI
  WT (pIC50 against wild type HIV-LAI strain): 6.6
Mutant A
  FR value towards mutant A: 1.4
Mutant E
  FR towards mutant E: 1.4
Mutant H
  FR towards mutant H: 1.5
mock-infected MT4 cells
  Tox (pCC50): <4

## CC(C)CN(C[C@@H](O)[C@H](Cc1ccccc1)NC(=O)OCc1cccnc1)S(=O)(=O)c1ccc2nc[nH]c2c1 [Compound 35]
HIV-1 strain LAI; Table 1
  pIC50 (LAI): 7.0
HIV-1 strain LAI
  WT (pIC50 against wild type HIV-LAI strain): 7.0
Mutant A
  FR value towards mutant A: 91
Mutant E
  FR towards mutant E: 17
Mutant H
  FR towards mutant H: 148
mock-infected MT4 cells; [1]
  Tox (pCC50): <4

## CC(C)CN(C[C@@H](O)[C@H](Cc1ccccc1)NC(=O)OC1COC2OCCC12)S(=O)(=O)c1ccc2nc[nH]c2c1 (some centres unmarked) [Compound 50]
HIV-1 strain LAI; Table 1
  pIC50 (LAI): 6.9
HIV-1 strain LAI
  WT (pIC50 against wild type HIV-LAI strain): 6.9
Mutant A
  FR value towards mutant A: 1.4
Mutant E
  FR towards mutant E: 0.83
Mutant H
  FR towards mutant H: 2.8
mock-infected MT4 cells
  Tox (pCC50): <4

## [(1S,2R)-3-[[(1-methylbenzimidazol-5-yl)sulfonyl](2-methyl-propyl)amino]-2-hydroxy-1-(phenylmethyl)propyl]carbamic acid, [(3R,3aS,6aR)-hexahydrofuro[2,3-b]furan-3-yl]ester [Compound 64]
HIV-1 strain LAI; Table 2
  pIC50 (LAI): 7.6
HIV-1 strain LAI
  WT (pIC50 against wild type HIV-LAI strain): 7.6
Mutant A
  FR value towards mutant A: 4.3
Mutant E
  FR towards mutant E: 1.5
Mutant H
  FR towards mutant H: 13
mock-infected MT4 cells; [1]
  Tox (pCC50): <4

## Cc1cccc(C)c1OCC(=O)N[C@@H](Cc1ccccc1)[C@H](O)CN(CC(C)C)S(=O)(=O)c1ccc2ncn(CCc3ccccc3)c2c1 [Compound 47]
HIV-1 strain LAI; Table 1
  pIC50 (LAI): 6.4
HIV-1 strain LAI
  WT (pIC50 against wild type HIV-LAI strain): 6.4
Mutant A
  FR value towards mutant A: 14
Mutant E
  FR towards mutant E: 7.8
Mutant H
  FR towards mutant H: 66
mock-infected MT4 cells; [1]
  Tox (pCC50): <4

## CC(C)CN(C[C@@H](O)[C@H](Cc1ccccc1)NC(=O)O[C@H]1CCOC1)S(=O)(=O)c1ccc2nc[nH]c2c1 [Compound 42]
HIV-1 strain LAI; Table 1
  pIC50 (LAI): 7.1
HIV-1 strain LAI
  WT (pIC50 against wild type HIV-LAI strain): 7.1
Mutant E
  FR towards mutant E: 8.7
Mutant H
  FR towards mutant H: 52
mock-infected MT4 cells
  Tox (pCC50): <4
